Measurements: US20240180900A1, “COMPOUNDS AND METHODS FOR THE TARGETED DEGRADATION OF ANDROGEN RECEPTOR” (Arvinas Operations, Inc., priority 2022, published 2024)
Read-outs that look alike come from different tables or passages of the source.

How the values were obtained:
VCaP cells = test: apoptosis in VCaP cells (CaspaseGlo); type: cell-based; conditions: Homo sapiens, CSS + 0.1 nM R1881, 72 hours, read-out: EC50, inducing apoptosis
Method: Intracellular prostate specific antigen (PSA) levels were determined using a PSA enzyme-linked immunosorbent assay (ELISA). […] The cell proliferation was determined using the CellTiter-Glo® assay. […] The CaspaseGlo® assay was carried out to measure the level of apoptosis in cells.
To evaluate the pharmacological effect of Compound A in vitro, PSA, cell proliferation, and apoptosis assays were carried out in VCaP cells.

[1] = preliminary PK in mCRPC participants (Phase 1/2); type: in vivo, human
Method: A chiral bioanalytical method by LC-MS/MS has been developed to characterize the PK of Compound A. Pharmacokinetic analyses were performed using noncompartmental analysis methods.
Mean steady state peak/trough ratio is less than 2, which indicates minimal fluctuation in plasma concentrations once steady state is achieved. Steady state occurs within 3 weeks into treatment.
An ongoing, open-label, Phase 1/2 study in male participants with mCRPC. The Phase 1 dose escalation investigated Compound A doses of 20 mg, 40 mg, 80 mg, 100 mg, 160 mg, 200 mg, 320 mg, 400 mg, 480 mg, and 500 mg administered QD. […] Doses of 100 mg QD and 300 mg QD were selected for the Phase 2 cohort expansion.

VCaP tumor xenograft = VCaP tumor xenograft study in intact (non-castrated) mice; type: in vivo, mouse
Text: To mimic higher androgen levels found in an incomplete testosterone suppression environment, intact (non-castrated) mice were employed for a VCaP tumor xenograft study.

AR T878A/D891H = target: T1, AR T878A/D891H (Homo sapiens, UniProt P10275, D891H/T878A); test: AR degradation in T-Rex-293 cell line, T878A/D891H; type: cell-based; conditions: T-Rex-293, ELISA
T1 construct: expressed in transfected cells; host or cells: T-REx-293
Text: (§1) FIG. 3 is a graph showing Compound A's ability to degrade clinically relevant mutated forms AR.
(§2) To assess the ability of Compound A to degrade variants of the AR, vectors expressing wild-type AR or mutant AR proteins harboring clinically observed mutations in the ligand binding domain (13 with single amino acid changes or 4 with 2 amino acid changes) (Azad A. A., Volik S. V., Wyatt A. W., et al. Androgen receptor gene aberrations in circulating cell-free DNA: biomarkers of therapeutic resistance in castration-resistant prostate cancer. Clin Cancer Res. 2015; 21:2315-2324; Robinson D., Van Allen E. M., Wu Y. M., et al. Integrative clinical genomics of advanced prostate cancer. Cell. 2015; 161:1215-1228; Ledet E. M., Lilly M. B., Sonpavde G., et al. Comprehensive analysis of AR alterations in circulating tumor DNA from patients with advanced prostate cancer. Oncologist.

AR W742C = target: T2, AR W742C (Homo sapiens, UniProt P10275, W742C); test: AR degradation in T-Rex-293 cell line, W742C; type: cell-based; conditions: T-Rex-293, ELISA
T2 construct: expressed in transfected cells; host or cells: T-REx-293
Text: as §1, §2

AR D891H = target: T3, AR D891H (Homo sapiens, UniProt P10275, D891H); test: AR degradation in T-Rex-293 cell line, D891H (western blot); type: cell-based; conditions: T-Rex-293, western blot
T3 construct: expressed in transfected cells; host or cells: T-REx-293
Text: as §1, §2

T1 sequence (P10275 whole entry T878A/D891H): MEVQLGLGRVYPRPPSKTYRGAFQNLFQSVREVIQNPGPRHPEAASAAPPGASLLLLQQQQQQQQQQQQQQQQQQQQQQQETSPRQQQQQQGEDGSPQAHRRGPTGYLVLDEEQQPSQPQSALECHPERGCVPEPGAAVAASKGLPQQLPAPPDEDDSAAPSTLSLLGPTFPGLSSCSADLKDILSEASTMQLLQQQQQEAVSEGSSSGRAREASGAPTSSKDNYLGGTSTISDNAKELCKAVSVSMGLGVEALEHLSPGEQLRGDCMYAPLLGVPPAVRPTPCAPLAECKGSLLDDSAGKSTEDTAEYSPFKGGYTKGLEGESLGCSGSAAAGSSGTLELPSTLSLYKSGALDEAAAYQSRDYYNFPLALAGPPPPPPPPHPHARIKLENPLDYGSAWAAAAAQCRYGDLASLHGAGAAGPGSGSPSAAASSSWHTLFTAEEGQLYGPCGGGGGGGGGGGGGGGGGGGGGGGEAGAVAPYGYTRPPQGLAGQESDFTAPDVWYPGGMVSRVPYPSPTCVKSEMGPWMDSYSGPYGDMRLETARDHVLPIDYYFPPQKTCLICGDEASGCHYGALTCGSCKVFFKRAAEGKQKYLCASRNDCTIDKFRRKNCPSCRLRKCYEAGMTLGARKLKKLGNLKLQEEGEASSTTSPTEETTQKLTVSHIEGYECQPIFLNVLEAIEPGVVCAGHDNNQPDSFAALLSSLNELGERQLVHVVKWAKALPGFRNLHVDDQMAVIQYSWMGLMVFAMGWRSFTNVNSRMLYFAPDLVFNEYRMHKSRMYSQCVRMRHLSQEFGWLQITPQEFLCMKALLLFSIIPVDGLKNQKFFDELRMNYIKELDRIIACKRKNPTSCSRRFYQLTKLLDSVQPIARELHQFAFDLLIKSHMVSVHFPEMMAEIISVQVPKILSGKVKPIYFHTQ
T3 sequence (P10275 whole entry D891H): as the sequence (P10275 whole entry T878A/D891H) above, with A878T counted along it
T2 sequence (P10275 whole entry W742C): as the sequence (P10275 whole entry T878A/D891H) above, with W742C, A878T, H891D counted along it

COc1cc(O[C@H]2C(C)(C)[C@H](NC(=O)c3ccc(N4CCC(CN5CCN(c6ccc(C(=O)N[C@H]7CCC(=O)NC7=O)c(F)c6)CC5)CC4)cc3)C2(C)C)ccc1C#N [Compound A, 4-(4-((1-(4-(((1R,3R)-3-(4-cyano-3-methoxyphenoxy)-2,2,4,4-tetramethylcyclobutyl)carbamoyl)phenyl)piperidin-4-yl)methyl)piperazin-1-yl)-N—((S)-2,6-dioxopiperidin-3-yl)-2-fluorobenzamide]
EC50 (VCaP cells): 8 nM | Mean steady state peak/trough ratio ([1]; QD dosing): less than 2 | time to steady state ([1]; QD dosing): ≤ 3 weeks | AUC(0-t) ([1]; human, plasma, oral, 20 mg, 20 mg QD, individual value (n = 1), read-out: AUC0-24 Day 1): 178 ng·h/mL | AUC(0-t) ([1]; human, plasma, oral, 20 mg, 20 mg QD, individual value (n = 1), read-out: AUC0-24 Day 21): 997 ng·h/mL | Cmax ([1]; human, plasma, oral, 20 mg, 20 mg QD, individual value (n = 1), read-out: Cmax Day 1): 11.1 ng/mL | Cmax ([1]; human, plasma, oral, 20 mg, 20 mg QD, individual value (n = 1), read-out: Cmax Day 21): 44.1 ng/mL | AUC(0-t) ([1]; human, plasma, oral, 40 mg, 40 mg QD, individual value (n = 1), read-out: AUC0-24 Day 1): 314 ng·h/mL | AUC(0-t) ([1]; human, plasma, oral, 40 mg, 40 mg QD, individual value (n = 1), read-out: AUC0-24 Day 21): 1300 ng·h/mL | Cmax ([1]; human, plasma, oral, 40 mg, 40 mg QD, individual value (n = 1), read-out: Cmax Day 1): 19.1 ng/mL | Cmax ([1]; human, plasma, oral, 40 mg, 40 mg QD, individual value (n = 1), read-out: Cmax Day 21): 60.3 ng/mL | AUC(0-t) ([1]; human, plasma, oral, 80 mg, 80 mg QD, individual value (n = 1), read-out: AUC0-24 Day 1): 432 ng·h/mL | AUC(0-t) ([1]; human, plasma, oral, 80 mg, 80 mg QD, individual value (n = 1), read-out: AUC0-24 Day 21): 3110 ng·h/mL | Cmax ([1]; human, plasma, oral, 80 mg, 80 mg QD, individual value (n = 1), read-out: Cmax Day 1): 22.2 ng/mL | Cmax ([1]; human, plasma, oral, 80 mg, 80 mg QD, individual value (n = 1), read-out: Cmax Day 21): 139 ng/mL | AUC(0-t) ([1]; male, human, plasma, oral, 100 mg, 100 mg QD (N=6), Cycle 1 Day 21, read-out: mean steady-state AUC0-24): 4610 ng·h/mL | AUC(0-t) ([1]; male, human, plasma, oral, 100 mg, 100 mg QD, Mean (CV %), read-out: AUC0-24 Day 1): 816 ng·h/mL | AUC(0-t) ([1]; male, human, plasma, oral, 100 mg, 100 mg QD, Mean (CV %), read-out: AUC0-24 Day 21): 4610 ng·h/mL | Cmax ([1]; male, human, plasma, oral, 100 mg, 100 mg QD, Mean (CV %), read-out: Cmax Day 1): 45.1 ng/mL | Cmax ([1]; male, human, plasma, oral, 100 mg, 100 mg QD, Mean (CV %), read-out: Cmax Day 21): 233 ng/mL | AUC(0-t) ([1]; male, human, plasma, oral, 160 mg, 160 mg QD, Mean (CV %), read-out: AUC0-24 Day 1): 2050 ng·h/mL | AUC(0-t) ([1]; male, human, plasma, oral, 160 mg, 160 mg QD, Mean (CV %), read-out: AUC0-24 Day 21): 8450 ng·h/mL | Cmax ([1]; male, human, plasma, oral, 160 mg, 160 mg QD, Mean (CV %), read-out: Cmax Day 1): 125 ng/mL | Cmax ([1]; male, human, plasma, oral, 160 mg, 160 mg QD, Mean (CV %), read-out: Cmax Day 21): 445 ng/mL | AUC(0-t) ([1]; male, human, plasma, oral, 200 mg, 200 mg QD, Mean (CV %), read-out: AUC0-24 Day 1): 1830 ng·h/mL | AUC(0-t) ([1]; male, human, plasma, oral, 200 mg, 200 mg QD, Mean (CV %), read-out: AUC0-24 Day 21): 11500 ng·h/mL | Cmax ([1]; male, human, plasma, oral, 200 mg, 200 mg QD, Mean (CV %), read-out: Cmax Day 1): 110 ng/mL | Cmax ([1]; male, human, plasma, oral, 200 mg, 200 mg QD, Mean (CV %), read-out: Cmax Day 21): 559 ng/mL | AUC(0-t) ([1]; male, human, plasma, oral, 300 mg, 300 mg QD, Mean (CV %), read-out: AUC0-24 Day 1): 2220 ng·h/mL | AUC(0-t) ([1]; male, human, plasma, oral, 300 mg, 300 mg QD, Mean (CV %), read-out: AUC0-24 Day 21): 14900 ng·h/mL | Cmax ([1]; male, human, plasma, oral, 300 mg, 300 mg QD, Mean (CV %), read-out: Cmax Day 1): 119 ng/mL | Cmax ([1]; male, human, plasma, oral, 300 mg, 300 mg QD, Mean (CV %), read-out: Cmax Day 21): 672 ng/mL | AUC(0-t) ([1]; male, human, plasma, oral, 320 mg, 320 mg QD, Mean (CV %), read-out: AUC0-24 Day 1): 3990 ng·h/mL | AUC(0-t) ([1]; male, human, plasma, oral, 320 mg, 320 mg QD, Mean (CV %), read-out: AUC0-24 Day 21): 23100 ng·h/mL | Cmax ([1]; male, human, plasma, oral, 320 mg, 320 mg QD, Mean (CV %), read-out: Cmax Day 1): 223 ng/mL | Cmax ([1]; male, human, plasma, oral, 320 mg, 320 mg QD, Mean (CV %), read-out: Cmax Day 21): 1070 ng/mL | AUC(0-t) ([1]; male, human, plasma, oral, 400 mg, 400 mg QD, Mean (CV %), read-out: AUC0-24 Day 1): 3350 ng·h/mL | AUC(0-t) ([1]; male, human, plasma, oral, 400 mg, 400 mg QD, Mean (CV %), read-out: AUC0-24 Day 21): 11900 ng·h/mL | Cmax ([1]; male, human, plasma, oral, 400 mg, 400 mg QD, Mean (CV %), read-out: Cmax Day 1): 232 ng/mL | Cmax ([1]; male, human, plasma, oral, 400 mg, 400 mg QD, Mean (CV %), read-out: Cmax Day 21): 526 ng/mL | AUC(0-t) ([1]; male, human, plasma, oral, 480 mg, 480 mg QD, Mean (CV %), read-out: AUC0-24 Day 1): 2540 ng·h/mL | AUC(0-t) ([1]; male, human, plasma, oral, 480 mg, 480 mg QD, Mean (CV %), read-out: AUC0-24 Day 21): 12900 ng·h/mL | Cmax ([1]; male, human, plasma, oral, 480 mg, 480 mg QD, Mean (CV %), read-out: Cmax Day 1): 145 ng/mL | Cmax ([1]; male, human, plasma, oral, 480 mg, 480 mg QD, Mean (CV %), read-out: Cmax Day 21): 644 ng/mL | AUC(0-t) ([1]; male, human, plasma, oral, 500 mg, 500 mg QD, Mean (CV %), read-out: AUC0-24 Day 1): 3590 ng·h/mL | AUC(0-t) ([1]; male, human, plasma, oral, 500 mg, 500 mg QD, Mean (CV %), read-out: AUC0-24 Day 21): 15000 ng·h/mL | Cmax ([1]; male, human, plasma, oral, 500 mg, 500 mg QD, Mean (CV %), read-out: Cmax Day 1): 203 ng/mL | Cmax ([1]; male, human, plasma, oral, 500 mg, 500 mg QD, Mean (CV %), read-out: Cmax Day 21): 703 ng/mL | half-life ([1]; male, human, plasma, oral, QD dosing, mCRPC participants, read-out: effective mean T1/2): 83 to 111 h | Tmax ([1]; male, human, plasma, oral administration, mCRPC participants, read-out: median Tmax): ~8 h | tumor growth inhibition (TGI) (VCaP tumor xenograft; 1 mg/kg/day orally QD for 21 days): 34% | tumor growth inhibition (TGI) (VCaP tumor xenograft; 3 mg/kg/day orally QD for 21 days): 74% | tumor growth inhibition (TGI) (VCaP tumor xenograft; 10 mg/kg/day orally QD for 21 days): 98% | DC50 (AR T878A/D891H): 3.4 nM | DC50 (AR W742C): 2.7 nM | DC50 (AR D891H): 3.9 nM
